Results on eleven molecules are retold here after patent US4572913A, “Use of 3-(arylmethyleneamino)-1-aryl-2-pyrazolines in the prophylaxis and treatment of inflammation, pain, pyresis, and asthma” (Burroughs Wellcome Co., priority 1980, dated 1986).

As usually defined, the IC50 is the concentration that gives 50% inhibition. A lower IC50 goes with inhibition by little substance.

In assay [1] the target is lipoxygenase. Kind of assay: inhibition of lipoxygenase, enzyme assay according to the method of Blackwell and Flower. It counts as biochemical.
For assay [2], the target named is cyclo-oxygenase. Kind of assay: inhibition of cyclo-oxygenase, enzyme assay according to the method of Blackwell and Flower. It counts as biochemical.
Chain of cyclo-oxygenase (P23219 24-599): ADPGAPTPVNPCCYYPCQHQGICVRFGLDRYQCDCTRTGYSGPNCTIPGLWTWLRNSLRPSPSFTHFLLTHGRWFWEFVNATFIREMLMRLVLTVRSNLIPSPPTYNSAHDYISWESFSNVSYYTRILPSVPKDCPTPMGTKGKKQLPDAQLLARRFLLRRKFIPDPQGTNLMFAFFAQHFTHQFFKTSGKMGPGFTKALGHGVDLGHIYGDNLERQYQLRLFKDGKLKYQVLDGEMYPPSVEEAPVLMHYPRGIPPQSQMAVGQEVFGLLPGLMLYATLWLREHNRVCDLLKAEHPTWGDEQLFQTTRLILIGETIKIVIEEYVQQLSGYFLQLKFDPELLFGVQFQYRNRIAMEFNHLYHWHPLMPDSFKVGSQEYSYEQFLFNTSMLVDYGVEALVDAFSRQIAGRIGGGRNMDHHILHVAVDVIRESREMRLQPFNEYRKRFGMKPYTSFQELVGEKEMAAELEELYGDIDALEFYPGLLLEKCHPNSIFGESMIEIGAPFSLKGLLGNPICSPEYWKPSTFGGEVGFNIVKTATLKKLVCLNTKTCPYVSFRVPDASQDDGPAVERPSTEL

In the case of `FC(F)(F)c1cccc(N2CCC(N=Cc3cccc4ccccc34)=N2)c1` [Example 7, 3-(1-naphthylmethyleneamino)-1-(3-trifluoromethylphenyl)-2-pyrazoline], the figures for the IC50 in assay [1] and in assay [2] were 6 µM and 10 µM, respectively.
Taken in the same sequence, the figures for `Oc1ccccc1C=NC1=NN(c2ccc(Br)c(C(F)(F)F)c2)CC1` [Example 11, 1-(4-bromo-3-trifluoromethylphenyl)-3-(2-hydroxybenzylideneamino)-2-pyrazoline] were above 10 µM and around 5 µM.
For `FC(F)(F)c1cccc(N2CCC(N=Cc3ccccn3)=N2)c1` [Example 2, 3-(2-pyridylmethyleneamino)-1-(3-trifluoromethylphenyl)-2-pyrazoline], in that order: around 3 µM and 1 µM.
For `CC1CN(c2cccc(C(F)(F)F)c2)N=C1N=Cc1ccccc1O` (stereo not shown) [Example 18, 4-Methyl-3-salicylideneamino-1-(3-trifluoromethylphenyl)-2-pyrazoline], in that order: around 1 µM and around 1 µM.
As to `FC(F)(F)c1cccc(N2CCC(N=Cc3ccccc3)=N2)c1` [Example 15, 3-Benzylideneamino-1-(3-trifluoromethylphenyl)-2-pyrazoline], the values for the IC50 in assay [1] and in assay [2] were below 1 µM and around 3 µM, respectively.
Taken in the same sequence, the figures for `COc1ccc(C=NC2=NN(c3ccc(Br)c(C(F)(F)F)c3)CC2)cc1` [Example 12, 1-(4-bromo-3-trifluoromethylphenyl)-3-(4-methoxybenzylideneamino)-2-pyrazoline] were around 1 µM and around 1 µM.
As to `Cc1ccc(C=NC2=NN(c3ccc4ccccc4c3)CC2)cc1` [Example 8, 3-(4-methylbenzylideneamino)-1-(2-naphthyl)-2-pyrazoline], the values for the IC50 in assay [1] and in assay [2] were 12 µM and 5 µM, respectively.
Take `O=C(O)CCCCOc1cccc(O)c1C=NC1=NN(c2cccc(C(F)(F)F)c2)CC1` [Example 1, 3-(2-4'-carboxybutoxy-6-hydroxybenzylideneamino)-1-(3-trifluoromethylphenyl)-2-pyrazoline]: the IC50 is 10 to 20 µM in assay [1] and below 3 µM in assay [2].
As to `Oc1ccccc1C=NC1=NN(c2cccc(C(F)(F)F)c2)CC1` [Example 4, 3-salicylideneamino-1-(3-trifluoromethylphenyl)-2-pyrazoline], the IC50 in assay [1] and in assay [2] was around 3 µM each time.
Consider `CC(C)(C)c1cccc(N2CCC(N)=N2)c1` [Example 13, 3-Amino-1-(3-t-butylphenyl)-2-pyrazoline], for which the IC50 in assay [1] and in assay [2] was below 1 µM each time.
With `FC(F)(F)c1cccc(N2CCC(N=Cc3ccc[nH]3)=N2)c1` [Example 3, 3-(2-pyrrolylmethyleneamino)-1-(3-trifluoromethylphenyl)-2-pyrazoline], the IC50 in assay [1] was 1 µM; in assay [2], below 1 µM.
